{"source": "paper PMC2572143", "about": "“Androgen Receptor Functional Analyses by High Throughput Imaging: Determination of Ligand, Cell Cycle, and Mutation-Specific Effects” (PLoS ONE, 2008)", "key": {"[1]": {"target": "T1, GFP-AR F764L (AIS mutation) (Homo sapiens, UniProt P10275, F765L)", "T1 construct": "expressed in transfected cells", "T1 sequence (P10275 1-920 F765L)": "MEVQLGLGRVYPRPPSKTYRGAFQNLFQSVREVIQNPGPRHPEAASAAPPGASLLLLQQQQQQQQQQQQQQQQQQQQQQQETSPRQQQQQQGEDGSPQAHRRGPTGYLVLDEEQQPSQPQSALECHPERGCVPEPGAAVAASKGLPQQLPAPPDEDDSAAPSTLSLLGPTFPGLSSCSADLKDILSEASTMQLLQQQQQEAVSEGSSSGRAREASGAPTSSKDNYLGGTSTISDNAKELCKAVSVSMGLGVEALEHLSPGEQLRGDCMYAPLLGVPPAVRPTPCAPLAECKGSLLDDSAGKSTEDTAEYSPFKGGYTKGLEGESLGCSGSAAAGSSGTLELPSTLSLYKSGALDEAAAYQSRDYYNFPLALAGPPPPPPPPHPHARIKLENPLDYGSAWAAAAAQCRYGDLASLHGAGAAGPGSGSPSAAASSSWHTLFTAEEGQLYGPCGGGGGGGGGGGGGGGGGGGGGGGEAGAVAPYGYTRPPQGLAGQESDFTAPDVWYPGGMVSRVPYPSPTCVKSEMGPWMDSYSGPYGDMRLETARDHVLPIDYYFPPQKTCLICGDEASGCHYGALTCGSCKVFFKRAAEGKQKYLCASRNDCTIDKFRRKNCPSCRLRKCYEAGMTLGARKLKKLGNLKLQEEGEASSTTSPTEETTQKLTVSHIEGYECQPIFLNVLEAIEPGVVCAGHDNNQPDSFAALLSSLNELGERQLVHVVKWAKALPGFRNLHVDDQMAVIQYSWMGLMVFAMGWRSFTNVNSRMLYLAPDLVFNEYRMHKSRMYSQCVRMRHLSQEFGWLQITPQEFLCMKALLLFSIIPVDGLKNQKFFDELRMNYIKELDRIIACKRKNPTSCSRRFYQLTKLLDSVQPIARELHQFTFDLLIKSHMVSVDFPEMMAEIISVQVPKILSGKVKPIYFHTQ", "assay": "HT imaging multiplex assay, all three parameters together, HeLa GFP-AR F764L", "format": "cell-based", "details": "read-out: maximal responses (three parameters), % of that observed with WT AR"}, "HeLa GFP-AR cells": {"tested_on": "HeLa GFP-AR cells", "assay": "Cell cycle analysis by DNA content (DAPI)/EdU incorporation in unsynchronized cells", "format": "cell-based, human", "details": "for EC50: Homo sapiens, HeLa, 18 h", "protocol": "To perform these studies, we simplified the HCS cell cycle analysis techniques described by Gesparri et al. to a DNA content (DAPI)/EdU incorporation biparametric analysis to identify G1, S phase, and G2 cells in unsynchronized growing cells (Fig. 6A). Cells were prepared as normal except with a brief 30 minute exposure to 10 µM EdU, which will incorporate into newly synthesized DNA similar to BrdU, prior to fixation. During image analysis, total nuclear DAPI signal (DNA) and mean nuclear EdU signal from each cell was quantified and used to determine cell cycle.\nFor experiments in which cell cycle effects were determined, cells were labeled using an Invitrogen Click-iT cell cycle analysis kit using supplied protocols. Prior to fixation, cells were exposed to 10 µM EdU for 30 minutes. Cells with EdU incorporation were labeled by an EdU specific antibody conjugated to an A647 florescent marker. Because the Click-iT labeling decreases GFP signal intensity, AR was labeled using an Anti-AR antibody (Dr. Nancy Weigel) and A488 secondary antibody (Molecular Probes)."}, "[2]": {"target": "T2, GFP-AR (wild type androgen receptor) (Homo sapiens, UniProt P10275)", "T2 sequence (P10275 1-920)": "T1 sequence (P10275 1-920 F765L) with L765F", "assay": "HT imaging multiplex assay, all three parameters together (FLIN, NVAR, CORR2), HeLa GFP-AR", "quoted_text": "(§1) In general, 49 images were captured per well for image analysis."}, "[3]": {"target": "T3, GFP-AR T877A (LNCaP mutation) (Homo sapiens, UniProt P10275, T878A)", "T3 construct": "expressed in transfected cells", "T3 sequence (P10275 1-920 T878A)": "T1 sequence (P10275 1-920 F765L) with L765F, T878A", "assay": "HT imaging multiplex assay, all measurements together, HeLa GFP-AR T877A", "format": "cell-based"}, "[4]": {"target": "T2, GFP-AR (wild type androgen receptor)", "assay": "HT imaging: AR nuclear translocation (FLIN) in stable HeLa GFP-AR cells", "quoted_text": "as §1"}, "[5]": {"target": "T2, GFP-AR (wild type androgen receptor)", "assay": "HT imaging: pARR2PB-dsRED2skl transcriptional reporter gene activity (CORR2) in stable HeLa GFP-AR cells", "format": "cell-based", "parameters": "expressed in transfected cells", "from_the_text": "Cells were imaged in PBS."}, "[6]": {"target": "T2, GFP-AR (wild type androgen receptor)", "assay": "HT imaging: AR nuclear hyperspeckling (NVAR) in stable HeLa GFP-AR cells", "quoted_text": "as §1"}}, "note": "Residue numbers refer to the chain shown, from its start. Like-named read-outs stand apart in the source and are kept apart here.", "data": [{"smiles": "C[C@]1(O)CC[C@H]2[C@@H]3CCC4=CC(=O)CCC4=C3C=C[C@@]21C", "note": "[R1881, Methyltrienolone]", "values": [{"measurement": "Emax", "setting": "[1]", "value": "40 to 60", "unit": "%"}, {"measurement": "S % (I + II)", "setting": "HeLa GFP-AR cells; 100 nM, untreated control 42.6", "value": 0.7, "unit": "%"}, {"measurement": "EC50", "setting": "HeLa GFP-AR cells; read-out: EC50 of G1/S block", "value": "0.1 ± 0.03", "unit": "nM"}, {"measurement": "EC50", "setting": "HeLa GFP-AR cells; read-out: EC50 of reduction in S-phase cells", "value": "0.07 ± 0.02", "unit": "nM"}, {"measurement": "concentration at which saturation of response is observed", "setting": "[2]; FLIN, NVAR, CORR2, titration 10−6 M to 10−11 M", "value": "≈ 100 nM"}, {"measurement": "difference of results from those observed with WT-AR", "setting": "[3]", "value": "≤ 1", "unit": "%"}, {"measurement": "cells with a majority of the GFP signal in the nucleus", "setting": "[4]", "value": "95–97%"}, {"measurement": "more AR in the nucleus in G2 cells compared to G1 cells", "setting": "[4]", "value": "8–12%"}, {"measurement": "time AR distribution remained nuclear after ligand pulse", "setting": "[4]", "value": "up to 15 hr"}]}, {"smiles": "CC(C)=CC(=O)O[C@H]1Cc2cc3ccc(=O)oc3cc2OC1(C)C", "note": "[Decursin]", "values": [{"measurement": "IC50", "setting": "[5]", "value": "10.6 ± 0.865", "unit": "µM"}, {"measurement": "decrease in transcriptional reporter gene activity (dsRED2skl reporter signal)", "setting": "[5]; with 10 nM R1881", "value": 45, "unit": "%"}, {"measurement": "EC50", "setting": "[4]", "value": "0.853 ± 0.0884", "unit": "µM"}, {"measurement": "IC50", "setting": "[4]", "value": "13.2 ± 0.152", "unit": "µM"}, {"measurement": "decrease in R1881-induced nuclear translocation", "setting": "[4]; with 10 nM R1881", "value": 95, "unit": "%"}, {"measurement": "IC50", "setting": "[6]", "value": "12.3 ± 0.43", "unit": "µM"}, {"measurement": "reduction/loss of agonist-induced hyperspeckling (NVAR)", "setting": "[6]; with 10 nM R1881", "value": 94, "unit": "%"}]}, {"smiles": "C[C@@H]1CC2=CC(=O)CC[C@@H]2[C@H]2CC[C@@]3(C)[C@@H](CC[C@]3(C)O)[C@@H]21", "note": "[Mibolerone, mibolerone]", "values": [{"measurement": "Emax", "setting": "[1]", "value": "85 to 105", "unit": "%"}, {"measurement": "difference of results from those observed with WT-AR", "setting": "[3]; compound alone", "value": "≤ 1", "unit": "%"}]}, {"smiles": "CC(C)(O)C(=O)Nc1ccc([N+](=O)[O-])c(C(F)(F)F)c1", "note": "[OHF, o-hydroxyflutamide]", "values": [{"measurement": "effect on the cell cycle (in words)", "setting": "HeLa GFP-AR cells; 18 hr treatment", "value": "did not have any appreciable effect on the cell cycle"}, {"measurement": "induction of transcriptional reporter gene activity (in words)", "setting": "[5]; compound alone", "value": "no significant hyperspeckling or induction of transcription"}, {"measurement": "concentration at which agonist effect / activation of the T877A mutant is observed", "setting": "[3]; compound alone", "value": "75 to 85", "unit": "nM"}, {"measurement": "induction of nuclear hyperspeckling (in words)", "setting": "[6]; compound alone", "value": "no significant hyperspeckling"}]}, {"smiles": "CC(C)(C)CC(C)(C)c1ccc(O)cc1", "note": "[Octophenol]", "values": [{"measurement": "response on any of the three parameters measured (in words)", "setting": "[2]; compound alone", "value": "did not yield a significant response"}, {"measurement": "response on any of the three parameters / AR antagonistic activity (in words)", "setting": "[2]; with 10 nM R1881 (competition)", "value": "did not yield a significant response"}]}]}
